In ChEMBL document CHEMBL5375968, “Peptide TK-HR from the Skin of Chinese Folk Medicine Frog Hoplobatrachus Rugulosus Accelerates Wound Healing via the Activation of the Neurokinin-1 Receptor” (J Med Chem, 2023):
Calls of active or inactive are those of the source. The calls are words filed in the database; no cut-off is given here.

Tests used:
[1] = Induction of wound healing in BALB/c mouse model of full-thickness wounds at 50 ug/ml, TOP bid pretreated with Aprepitant for 2 hrs followed by compound administration measured after 2 days (reference value: 35.3 %); type: functional; settings: dose 50 µg/ml, time 2 day
[2] = tested on: RAW264.7; test: Induction of cell migration in mouse RAW264.7 cells incubated for 24 hrs by crystal violet staining based microscopy; type: functional; settings: dose 5-20 µM
[3] = Induction of wound healing in BALB/c mouse model of full-thickness wounds at 50 ug/ml, TOP bid measured after 6 days (reference value: 71.7 %); type: functional; settings: dose 50 µg/ml, time 6 day
[4] = tested on: Aorta; test: Ex vivo angiogenic activity in Aprepitant-treated C57BL/6 mouse aortic ring assessed as sprouting by measuring vessel outgrowth area at 20 uM measured for 7 days by microscopic analysis (reference value: 117.3 %); type: functional; settings: time 7 day
[5] = Toxicity in BALB/c mouse model of full-thickness wounds assessed as inflammatory foci in kidney at 200 ug/ml, TOP bid measured upto 8 days by H and E staining based analysis; type: tissue-based; settings: in vivo, topical_or_ocular, 192 h, dose 200 µg/ml, time < 8 day
[6] = tested on: RAW264.7; test: Upregulation of phosphorylated p38 level in mouse RAW264.7 cells at 2.5 to 20 uM incubated for 4 hrs by Western blot analysis; type: functional, cell-based; settings: dose 2.5-20 µM
[7] = Induction of wound healing in BALB/c mouse model of full-thickness wounds at 100 ug/ml, TOP bid measured after 8 days (reference value: 81.0 %); type: functional; settings: dose 100 µg/ml, time 8 day
[8] = tested on: NIH3T3; test: Effect on TGF-1beta production in mouse 3T3 cells at 5 to 40 uM incubated for 24 hrs by ELISA; type: functional, cell-based; settings: dose 5-40 µM
[9] = tested on: HaCaT; test: Induction of cell migration in human HaCaT cells assessed as healing rate at 20 uM measured after 24 hrs by scratch healing assay (reference value: 36.8 %); type: functional
[10] = tested on: RAW264.7; test: Cytotoxicity against mouse RAW264.7 cells assessed as cell viability at 5 to 40 uM incubated for 24 hrs by MTT assay; type: toxicity, cell-based; settings: raw264.7, 24 h, dose 5-40 µM
[11] = tested on: RAW264.7; test: Upregulation of phosphorylated Smad2 level in Aprepitant-treated mouse RAW264.7 cells at 2.5 to 20 uM incubated for 4 hrs by Western blot analysis; type: functional, cell-based; settings: dose 2.5-20 µM
[12] = tested on: RAW264.7; test: Effect on total Smad3 level in mouse RAW264.7 cells at 2.5 to 20 uM incubated for 4 hrs by Western blot analysis; type: functional, cell-based; settings: dose 2.5-20 µM
[13] = tested on: RAW264.7; test: Induction of phagocytosis in mouse RAW264.7 cells assessed as increase in neutral red dye uptake by measuring optical density at 540 nm at 5 uM incubated for 24 hrs followed by dye addition measured after 4 hrs by absorbance based assay (reference value: 0.073); type: functional; settings: time 28 hrs
[14] = organism: Mus musculus; test: Induction of wound healing in BALB/c mouse model of full-thickness wounds assessed as increase in number of blood vessels in wound skin at 50 ug/ml, TOP bid measured after 4 days by IHC analysis; type: functional; settings: dose 50.0 µg/ml, time 4.0 day
[15] = Induction of wound healing in BALB/c mouse model of full-thickness wounds at 50 ug/ml, TOP bid pretreated with Aprepitant for 2 hrs followed by compound administration measured after 6 days (reference value: 69.3 %); type: functional; settings: dose 50 µg/ml, time 6 day
[16] = Induction of wound healing in BALB/c mouse model of full-thickness wounds at 50 ug/ml, TOP bid pretreated with Aprepitant for 2 hrs followed by compound administration measured after 4 days (reference value: 50.6 %); type: functional; settings: dose 50 µg/ml, time 4 day
[17] = tested on: HUVEC; test: Induction of cell migration in Mitomycin C-treated HUVEC cells assessed as healing rate at 20 uM measured after 48 hrs by scratch healing assay (reference value: 51.6 %); type: functional, Homo sapiens
[18] = Induction of wound healing in BALB/c mouse model of full-thickness wounds at 50 ug/ml, TOP bid pretreated with Aprepitant for 2 hrs followed by compound administration measured after 8 days (reference value: 82.1 %); type: functional; settings: dose 50 µg/ml, time 8 day
[19] = tested on: Neutrophil; test: Induction of cell migration in Aprepitant-treated BALB/c mouse neutrophils at 5 to 40 uM incubated for 8 hrs by transwell migration assay; type: functional, cell-based; settings: dose 5-40 µM
[20] = tested on: RAW264.7; test: Upregulation of phosphorylated Smad2 level in mouse RAW264.7 cells at 2.5 to 20 uM incubated for 4 hrs by Western blot analysis; type: functional, cell-based; settings: dose 2.5-20 µM
[21] = organism: Mus musculus; test: Induction of wound healing in BALB/c mouse model of full-thickness wounds assessed as increase in recruitment of M2-type macrophages in wound skin at 50 ug/ml, TOP bid measured after 4 days by IHC analysis; type: functional; settings: dose 50.0 µg/ml, time 4.0 day
[22] = tested on: RAW264.7; test: Effect on total p38 level in mouse RAW264.7 cells at 2.5 to 20 uM incubated for 4 hrs by Western blot analysis; type: functional, cell-based; settings: dose 2.5-20 µM
[23] = tested on: Cutibacterium acnes; test: Antimicrobial activity against Propionibacterium acnes ATCC 6919 assessed as microbial growth inhibition at 100 uM; type: functional, organism-based
[24] = organism: Mus musculus; test: Induction of wound healing in BALB/c mouse model of full-thickness wounds assessed as parallel alignment of collagen fibers at 50 to 200 ug/ml, TOP bid measured after 8 days by Masson's Trichome staining based analysis; type: functional; settings: dose 50-200 µg/ml, time 8.0 day
[25] = tested on: HUVEC; test: Induction of cell migration in HUVEC cells assessed as healing rate at 20 uM measured after 48 hrs by scratch healing assay (reference value: 57.2 %); type: functional, Homo sapiens
[26] = tested on: Pseudomonas aeruginosa; test: Antimicrobial activity against Pseudomonas aeruginosa ATCC 27853 assessed as microbial growth inhibition at 100 uM; type: functional, organism-based
[27] = tested on: HUVEC; test: Angiogenic activity in HUVEC cells assessed as increase in tube formation at 5 uM measured for 4 hrs by microscopic analysis relative to control; type: functional, Homo sapiens
[28] = tested on: HUVEC; test: Induction of cell migration in HUVEC cells assessed as formation of cytoplasmic protrusions at 20 uM measured after 24 hrs by immunofluorescence microscopy; type: functional, cell-based; settings: Homo sapiens
[29] = tested on: Mast cell; test: Inhibition of degranulation in mast cells (unknown origin) assessed as beta- hexosaminidase release upto 40 uM; type: functional, cell-based
[30] = tested on: Bacillus subtilis; test: Antimicrobial activity against Bacillus subtilis CMCC 63501 assessed as microbial growth inhibition at 100 uM; type: functional, organism-based
[31] = organism: Mus musculus; test: Induction of wound healing in BALB/c mouse model of full-thickness wounds assessed as increase in phosphorylated Smad2 level in wound skin at 50 ug/ml, TOP bid measured after 4 days by Western blot analysis; type: functional; settings: dose 50.0 µg/ml, time 4.0 day
[32] = tested on: HUVEC; test: Angiogenic activity in HUVEC cells assessed as increase in tube formation at 20 uM measured for 4 hrs by microscopic analysis relative to control; type: functional, Homo sapiens
[33] = organism: Mus musculus; test: Induction of wound healing in BALB/c mouse model of full-thickness wounds assessed as reduction in epidermal cells in wound skin at 50 ug/ml, TOP bid measured after 4 days by IHC analysis; type: functional, cell-based; settings: dose 50.0 µg/ml, time 4.0 day
[34] = organism: Mus musculus; test: Induction of wound healing in BALB/c mouse model of full-thickness wounds assessed as increase in epidermal layer re-constuction at 50 ug/ml, TOP bid measured after 8 days by H and E staining based analysis; type: functional; settings: dose 50.0 µg/ml, time 8.0 day

With H-KPNPDRFYGLM-NH2 the Activity [1] was 38.7%, the Activity [2] was “Dose-Dependent Effect” and the Activity [3] was 86.6%. For the same substance, the Activity [4] was 40%, the Activity [5] was “Non-Toxic” and the Activity [6] was “Active”. For the same substance, the Activity [7] was 100%, the Activity [8] was “inactive” and the Activity [9] was 72.1%. The Activity [10] was “Non-Toxic”, the Activity [11] was “inactive” and the Activity [12] was “inactive”. For the same substance, the OD [13] was 0.103, the Activity [14] was “Active” and the Activity [15] was 69.4%. For the same substance, the Activity [16] was 56.1%, the Activity [17] was 78.7% and the Activity [18] was 82.5%. The Activity [19] was “inactive”, the Activity [20] was “Active” and the Activity [21] was “Active”. The Activity [22] was “inactive”, the Activity [23] was “inactive” and the Activity [24] was “Active”. The Activity [25] was 83.4%, the Activity [26] was “inactive” and the Activity [27] was 85.3%. For the same substance, the Activity [28] was “Active”, the inhibition [29] was “Active” and the Activity [30] was “inactive”. The Activity [31] was “Active”, the Activity [32] was 181.4% and the Activity [33] was “Active”. For the same substance, the Activity [34] was “Active”.
